Values after ≈ are worked out from the molar mass of the structure shown. Where two headings read alike, the source gives them in different places.
Columns and labels:
A. baumannii ATCC 19606 = assay: Minimal inhibitory concentration (CLSI methods); type: cell-based, Acinetobacter baumannii
Experimental: (§1) Antibacterial assays with taylorflavin B (8) were carried out by Micromyx, LLC in accordance with methods from the Clinical and Laboratory Standards Institute. Minimal inhibitory concentrations were determined with the following strains: E. coli ATCC 25922, A. baumannii ATCC 19606, V. cholerae BAA-2163, N. gonorrhoeae ATCC 49226, P. aeruginosa ATCC 27853, K. pneumoniae MMX 214. S. aureus ATCC 29213, S. aureus MMX 2011, S. pneumoniae ATCC 49619, S. pyogenes MMX 6253, S. agalactiae MMX 6189, E. faecalis ATCC 29212, E. faecalis MMX 486, B. subtilis ATCC 6633, C. difficile ATCC 700057, B. fragilis ATCC 25285. Assays with taylorflavin A (7) were carried in-house according to the same protocols.

V. cholerae BAA-2163 = assay: Minimal inhibitory concentration (CLSI methods); type: cell-based, Vibrio cholerae
Experimental: as §1

B. fragilis ATCC 25285 = assay: Minimal inhibitory concentration (CLSI methods); type: cell-based
Experimental: as §1

B. subtilis ATCC 6633 = assay: Minimal inhibitory concentration (CLSI methods); type: cell-based
Experimental: as §1

C. difficile ATCC 700057 = assay: Minimal inhibitory concentration (CLSI methods); type: cell-based
Experimental: as §1

E. coli ATCC 25922 = assay: Minimal inhibitory concentration (CLSI methods); type: cell-based
Experimental: as §1

E. faecalis ATCC 29212 = assay: Minimal inhibitory concentration (CLSI methods); type: cell-based; conditions: E. faecalis VSE
Experimental: as §1

E. faecalis MMX 486 = assay: Minimal inhibitory concentration (CLSI methods); type: cell-based; conditions: E. faecalis VRE
Experimental: as §1

K. pneumoniae MMX 214 = assay: Minimal inhibitory concentration (CLSI methods); type: cell-based
Experimental: as §1

[1] = test system: N. gonorrhoeae ATCC 49226; assay: Minimal inhibitory concentration (CLSI methods); type: cell-based
Experimental: as §1

P. aeruginosa ATCC 27853 = assay: Minimal inhibitory concentration (CLSI methods); type: cell-based
Experimental: as §1

S. agalactiae MMX 6189 = assay: Minimal inhibitory concentration (CLSI methods); type: cell-based
Experimental: as §1

S. aureus ATCC 29213 = assay: Minimal inhibitory concentration (CLSI methods); type: cell-based
Experimental: as §1

S. aureus MMX 2011 = assay: Minimal inhibitory concentration (CLSI methods); type: cell-based; conditions: S. aureus MRSA
Experimental: as §1

S. pneumoniae ATCC 49619 = assay: Minimal inhibitory concentration (CLSI methods); type: cell-based; conditions: S. pneumoniae PSPP
Experimental: as §1

S. pyogenes MMX 6253 = assay: Minimal inhibitory concentration (CLSI methods); type: cell-based
Experimental: as §1

[2] = test system: collection of Gram-positive bacteria; assay: Antibacterial assays, Gram-positive panel; type: cell-based
Experimental: as §1

E. coli = assay: In-house bioactivity assays of induced peaks and purified taylorflavins; type: cell-based
S. hiroshimensis A18 = assay: Validation of elicitor: disc diffusion assay of culture extracts on E. coli ZSR638; type: cell-based, Streptomyces hiroshimensis; conditions: S. hiroshimensis culture induced by 33 μM atenolol; uninduced control none
Experimental: Seed cultures of S. hiroshimensis A18 were prepared as described for the HiTES screen above. […] A control flask was prepared containing the same volume of DMSO, rather than atenolol. The culture was incubated at 30° C./200 rpm. […] The organic phases were combined, divided in two, and dried in vacuo.
For the disc diffusion assays, the dried control and atenolol-treated culture extracts were dissolved in 100 μL of DMSO each. Filter paper discs were infused with 30 μL of each sample, allowed to dry, and then placed on a soft LB agar (1% agarose) plate inoculated with E. coli ZSR638 at a concentration of 2×10^6 cells/mL. The agar plate was incubated at 37° C. for 10 h and then inspected visually.

several Vibrio strains = assay: Cebulantin bioactivity screen (IC50); type: cell-based; conditions: range over several Vibrio strains
[3] = test system: Gram-positive bacteria tested; assay: Cebulantin bioactivity screen; type: cell-based
β-galactosidase = conditions: cited from earlier work

Cn1nc2c(nc1=O)c(=O)n(C)c(=O)n2C [Taylorflavin B, 2-methylfervenulone]
minimal inhibitory concentration (MIC) (A. baumannii ATCC 19606): 16 µg/mL (≈ 71.7 µM)
minimal inhibitory concentration (MIC) (V. cholerae BAA-2163): 16 µg/mL (≈ 71.7 µM)
minimal inhibitory concentration (MIC) (B. fragilis ATCC 25285): >64 µg/mL
minimal inhibitory concentration (MIC) (B. subtilis ATCC 6633): 64 µg/mL (≈ 287 µM)
minimal inhibitory concentration (MIC) (C. difficile ATCC 700057): >64 µg/mL
minimal inhibitory concentration (MIC) (E. coli ATCC 25922): 16 µg/mL (≈ 71.7 µM)
minimal inhibitory concentration (MIC) (E. faecalis ATCC 29212): >64 µg/mL
minimal inhibitory concentration (MIC) (E. faecalis MMX 486): 64 µg/mL (≈ 287 µM)
minimal inhibitory concentration (MIC) (K. pneumoniae MMX 214): >64 µg/mL
minimal inhibitory concentration (MIC) [1]: 4 µg/mL (≈ 17.9 µM)
minimal inhibitory concentration (MIC) (P. aeruginosa ATCC 27853): >64 µg/mL
minimal inhibitory concentration (MIC) (S. agalactiae MMX 6189): 32 µg/mL (≈ 143 µM)
minimal inhibitory concentration (MIC) (S. aureus ATCC 29213): 64 µg/mL (≈ 287 µM)
minimal inhibitory concentration (MIC) (S. aureus MMX 2011): 64 µg/mL (≈ 287 µM)
minimal inhibitory concentration (MIC) (S. pneumoniae ATCC 49619): 32 µg/mL (≈ 143 µM)
minimal inhibitory concentration (MIC) (S. pyogenes MMX 6253): 32 µg/mL (≈ 143 µM)
growth inhibition of Gram-positive bacteria [2]: did not inhibit the growth
antibiotic activity / inhibition of E. coli growth (E. coli): more potent inhibitor
antibiotic activity / inhibition of E. coli growth (E. coli; listed as 8): antibiotic activity

CC(C)NCC(O)COc1ccc(CC(N)=O)cc1 (centres unmarked) [atenolol]
zone of inhibition on E. coli agar plates (S. hiroshimensis A18): clear zone of inhibition

C/C=C1\NC(=O)CNC(=O)[C@H](Cc2ccccc2)NC(=O)[C@H](NC(=O)[C@@H](NC(=O)[C@@H]2CCCN2C(=O)CN)[C@@H](C)CC)[C@H](C)SC[C@@H]2NC(=O)[C@H](NC1=O)[C@H](C)SC[C@@H](C(=O)N1CCC[C@H]1C(=O)N[C@@H]1CSC[C@@H](C(=O)O)NC(=O)[C@H](CO)NC(=O)[C@H](C(C)C)NC(=O)/C(=C/C)NC(=O)[C@H](CC(N)=O)NC(=O)[C@H](C)NC1=O)NC(=O)[C@@H]1C[C@@H](O)CN1C(=O)/C(=C/C)NC(=O)CNC(=O)[C@H](Cc1c[nH]c3ccccc13)NC2=O [cebulantin]
IC50 (several Vibrio strains): 8.8 to 29.1 µM
growth-inhibitory activity [3]: no growth-inhibitory activity
IC50 (E. coli (ΔlptD)): 9.7 µM
IC50 (V. parahaemolyticus): 8.8 ± 2.1 µM
IC50 (V. cholerae): 14.1 ± 2.4 µM
IC50 (V. alginolyticus): 24.5 ± 3.2 µM
IC50 (V. ordahi): 27 ± 5.4 µM
IC50 (V. anguillarum): 29.1 ± 8.2 µM
IC50 (P. aeruginose): 47 ± 11.4 µM
IC50 (S. aureus): > 100 µM
IC50 (B. subtilis): > 100 µM

OCc1cc2c([nH]c3ccccc32)c(C(O)CO)n1 (centres unmarked) [pyridindolol]
inhibitory activity against β-galactosidase (β-galactosidase): inhibitory activity
